Measurements reported in article PMC2821678 (Chemico-biological interactions, 2009).
Where two headings read alike, the source gives them in different places.

Tests used:
[1] = test system: SK-MEL-28 melanoma cells; test: MTT cell viability, SK-MEL-28; type: cell-based, human
[2] = test system: B16-F0 melanoma cells; test: MTT cell viability, B16-F0; type: cell-based, murine; details: for IC50: read-out: IC50 (48 h) B16-F0
[3] = test system: Mushroom tyrosinase; test: Tyrosinase mediated GSH depletion assay; type: biochemical; details: for % GSH depletion (2 h) Tyrosinase/O2: 2 h incubation
[4] = test system: MeWo cells; test: MTT cell viability, MeWo; type: cell-based, human; details: 75 μM
[5] = test system: B16-F10 melanoma cells; test: MTT cell viability, B16-F10; type: cell-based, murine; details: 75 μM
[6] = MTT cell viability, PC-3; type: cell-based; details: human, PC-3 prostate cells
[7] = test system: SK-MEL-28 melanoma cells; test: Cell cycle analyses by flow cytometry; type: cell-based, human; details: 48 h
[8] = test system: amelanotic C32 melanoma cells; test: Reactive oxygen species; type: cell-based, human
[9] = test system: amelanotic C32 cells; test: MTT cell viability, C32; type: cell-based, human; details: 75 μM
[10] = MTT cell viability, SW-620; type: cell-based; details: human, SW-620 colorectal adenocarcinoma cells
[11] = test system: melanocytic SK-MEL-28 melanoma cells; test: Reactive oxygen species; type: cell-based, human
[12] = test system: melanocytic SK-MEL-28 melanoma cells; test: Intracellular GSH measurement, SK-MEL-28; type: cell-based, human
[13] = test system: amelanotic C32 melanoma cells; test: Intracellular GSH measurement, C32; type: cell-based, human
[14] = test system: Mushroom tyrosinase; type: biochemical; details: pH 7.4; for Tyrosinase Kinetics AA (rate of AA oxidation): nM of AA per compound (μM) per tyrosinase (U/ml) per min; for Tyrosinase Kinetics NADH (rate of NADH oxidation): nM of NADH per compound (μM) per tyrosinase (U/ml) per min
[15] = test system: tyrosinase shRNA transfected SK-MEL-28 cells; test: Drug sensitivity assay using tyrosinase shRNA transfected cells; type: cell-based, human
[16] = MTT cell viability, Saos-2; type: cell-based; details: human, Saos-2 osteosarcoma cells
[17] = test system: amelanotic SK-MEL-24 cells; test: MTT cell viability, SK-MEL-24; type: cell-based; details: 75 μM
[18] = test system: SK-MEL-5 cells; test: MTT cell viability, SK-MEL-5; type: cell-based, human; details: 75 μM
[19] = MTT cell viability, BJ; type: cell-based; details: human, BJ skin fibroblast cells
[20] = clinical trials terminated; cited from earlier work
[21] = Homo sapiens, SK-MEL-28, 48 h, read-out: IC50 (48 h) SK-MEL-28
[22] = read-out: IC50 (48 h) SK-MEL-28, 48 h, MTT
[23] = 0.75 mM (750 μM), listed as C00002

Compound: O=C(O)c1cccc(O)c1 [3-hydroxybenzoic acid]
- IC50 [1, 21]: 2300 µM
- IC50 ([2]; Mus musculus, B16F0, 48 h): 1800 µM

Compound: O=C(O)c1ccccc1O [2-hydroxybenzoic acid]
- % GSH depletion (2 h) Tyrosinase/O2 [3]: 0%
- IC50 [1, 21]: 5000 µM
- IC50 ([2]; Mus musculus, B16F0, 48 h): 5200 µM

Compound: COc1ccccc1 [Anisole, anisole, reference compound]
- % GSH depletion (2 h) Tyrosinase/O2 [3]: 21±3%
- IC50 [1, 21]: > 12000 µM
- IC50 ([2]; Mus musculus, B16F0, 48 h): > 5000 µM

Compound: CC(=O)c1ccccc1 [Acetophenone, acetophenone, reference compound]
- % GSH depletion (2 h) Tyrosinase/O2 [3]: 44±3%
- IC50 [1, 21]: > 10000 µM
- IC50 ([2]; Mus musculus, B16F0, 48 h): > 12000 µM

Compound: CCOC(=O)c1cccc(O)c1 [Ethyl 3-hydroxybenzoate, ethyl 3-hydroxybenzoate]
- IC50 [1, 21]: 2100 µM
- IC50 ([2]; Mus musculus, B16F0, 48 h): 1900 µM

Compound: CCOC(=O)c1ccccc1 [Ethyl benzoate, ethyl benzoate, reference compound]
- % GSH depletion (2 h) Tyrosinase/O2 [3]: 26±3%
- IC50 [1, 21]: 7000 µM
- IC50 ([2]; Mus musculus, B16F0, 48 h): > 10000 µM

Compound: Cc1ccccc1 [Toluene, toluene, reference compound]
- IC50 [1, 21]: 10000 µM
- IC50 ([2]; Mus musculus, B16F0, 48 h): > 10000 µM

Compound: Cc1ccc(O)cc1 [4-hydroxytoluene]
- IC50 [1, 21]: 2000 µM

Compound: CC(=O)c1ccc(O)cc1 [4-hydroxyacetophenone]
- IC50 [1, 21]: 8000 µM
- IC50 ([2]; Mus musculus, B16F0, 48 h): 3000 µM

Compound: 2-hydroxyacetophenone
- IC50 [1, 22]: 4000 µM

Compound: OCc1cccc(O)c1 [3-hydroxybenzyl alcohol]
- % GSH depletion (2 h) Tyrosinase/O2 [3]: 29±3%
- IC50 [1, 21]: 5000 µM
- IC50 ([2]; Mus musculus, B16F0, 48 h): 4600 µM

Compound: OCc1ccccc1O [2-hydroxybenzyl alcohol]
- % GSH depletion (2 h) Tyrosinase/O2 [3]: 0%
- IC50 [1, 21]: 1500 µM
- IC50 ([2]; Mus musculus, B16F0, 48 h): 1100 µM

Compound: CCOC(=O)c1ccc(O)cc1 [Ethyl 4-hydroxybenzoate, ethyl 4-hydroxybenzoate]
- anti-proliferative effect [4]: 55±8%
- anti-proliferative effect [5]: 60±8%
- % GSH depletion (2 h) Tyrosinase/O2 [3]: 24±4%
- % GSH depletion (2 h) Tyrosinase/O2 ([3]; listed as 4-HEB): 24%
- % GSH depletion (2 h) Tyrosinase/O2 ([3]; listed as C00001): 24±4%
- viability at 75 µM [6]: 85 ± 3%
- Apoptosis (Sub G0/G1) ([7]; 75 μM): 2.9±0.3 %
- G1 ([7]; 75 μM): 74.7±0.8%
- G2/M ([7]; 75 μM): 9.9±0.1%
- S ([7]; 75 μM): 12.4±0.7%
- Apoptosis (Sub G0/G1) ([7]; 150 μM): 3.1±0.2 %
- G1 ([7]; 150 μM): 72.1±0.7%
- G2/M ([7]; 150 μM): 10.6±0.9%
- S ([7]; 150 μM): 13.2±1.2%
- Apoptosis (Sub G0/G1) ([7]; 250 μM): 5.0±0.9 %
- G1 ([7]; 250 μM): 63.4±1.8 %
- G2/M ([7]; 250 μM): 10.7±0.7%
- S ([7]; 250 μM): 20.1±2.6 %
- Apoptosis (Sub G0/G1) ([7]; 500 μM): 6.2±0.8 %
- G1 ([7]; 500 μM): 59.8±1.6 %
- G2/M ([7]; 500 μM): 10.9±0.4%
- S ([7]; 500 μM): 22.1±0.9 %
- Fold ROS formation (40 min) at IC50 ([8]; 75 μM, C32): 6 Fold
- ROS formation ([8]; 75-1500 μM, C32, compared with SK-MEL-28): significantly less
- anti-proliferative effect [9]: 28±4%
- viability at 75 µM [10]: 89 ± 4%
- Fold ROS formation (40 min) at IC50 ([11]; 75 μM, SK-MEL-28): 24 Fold
- ROS formation ([11]; 75-1500 μM, various time points, SK-MEL-28): dose and time dependent increase
- Intracellular GSH (ICG) depletion (2 h) ([12]; 75 μM, listed as C00001): 37%
- Intracellular GSH (ICG) depletion (2 h) ([13]; 75 μM, listed as 4-HEB): 8%
- Intracellular GSH (ICG) depletion (2 h) ([13]; 75 μM, listed as C00001): 8%
- Intracellular GSH depletion (2 h) ([13]; 150 μM): 13%
- Tyrosinase Kinetics AA (rate of AA oxidation) ([14]; listed as C00001): 143 nM ^*
- Tyrosinase Kinetics NADH (rate of NADH oxidation) ([14]; listed as C00001): 389 nM ^*
- toxicity prevented by transfection with tyrosinase shRNA clone 3 ([15]; 75 μM, 48 h, shRNA3 curtailed tyrosinase expression by 50%): 24±7%
- viability at 75 µM [16]: 86 ± 1%
- anti-proliferative effect ([1]; 75 μM, SK-MEL-28): 52±4%
- IC50 [1, 21]: 75 µM
- anti-proliferative effect [17]: 24±3%
- anti-proliferative effect ([2]; 75 μM, B16-F0): 62±11%
- IC50 ([2]; Mus musculus, B16F0, 48 h): 190 µM
- anti-proliferative effect [18]: 57±5%
- viability at 75 µM [19]: 89 ± 7%

Compound: COc1cccc(O)c1 [3-hydroxyanisole]
- % GSH depletion (2 h) Tyrosinase/O2 [3]: 24±3%
- IC50 [1, 21]: 3400 µM
- IC50 ([2]; Mus musculus, B16F0, 48 h): 43 µM

Compound: O=C(O)c1ccccc1 [Benzoic acid, benzoic acid, reference compound]
- % GSH depletion (2 h) Tyrosinase/O2 [3]: 12±2%
- IC50 [1, 21]: > 10000 µM
- IC50 ([2]; Mus musculus, B16F0, 48 h): 11000 µM

Compound: OCc1ccc(O)cc1 [4-hydroxybenzyl alcohol]
- IC50 [1, 21]: 2000 µM
- IC50 ([2]; Mus musculus, B16F0, 48 h): 2200 µM

Compound: OCc1ccccc1 [Benzyl alcohol, benzyl alcohol, reference compound]
- % GSH depletion (2 h) Tyrosinase/O2 [3]: 0%
- IC50 [1, 21]: > 10000 µM
- IC50 ([2]; Mus musculus, B16F0, 48 h): 8000 µM

Compound: CCOC(=O)c1ccc(OC)cc1 [E4MB, ethyl 4-methoxybenzoate]
- % GSH depletion (2 h) Tyrosinase/O2 ([3]; listed as C00002): 5±3%
- Fold ROS formation (40 min) at IC50 ([8]; 750 μM, C32): 4 Fold
- ROS formation ([8]; 750 μM-5 mM, C32): negligible
- Fold ROS formation (40 min) at IC50 ([11]; 750 μM, SK-MEL-28): 9 Fold
- ROS formation ([11]; 750 μM-5 mM, SK-MEL-28, in comparison to 4-HEB): significantly lower
- Intracellular GSH (ICG) depletion (2 h) ([12]; 0.75 mM (750 μM)): 10%
- Intracellular GSH (ICG) depletion (2 h) [12, 23]: 10%
- Intracellular GSH depletion (2 h) ([12]; 1 mM): 13%
- Intracellular GSH depletion (2 h) ([12]; 1.5 mM): 15%
- Intracellular GSH (ICG) depletion (2 h) ([13]; 0.75 mM (750 μM)): 6%
- Intracellular GSH (ICG) depletion (2 h) [13, 23]: 6%
- Intracellular GSH depletion (2 h) ([13]; 1 mM): 7%
- Intracellular GSH depletion (2 h) ([13]; 1.5 mM): 10%
- Tyrosinase Kinetics AA (rate of AA oxidation) [14]: 8 nM
- Tyrosinase Kinetics AA (rate of AA oxidation) ([14]; listed as C00002): 8 nM ^**
- Tyrosinase Kinetics NADH (rate of NADH oxidation) [14]: 50 nM
- Tyrosinase Kinetics NADH (rate of NADH oxidation) ([14]; listed as C00002): 50 nM ^**
- IC50 ([1]; Homo sapiens, SK-MEL-28, 48 h, read-out: IC50 (48 h) SK-MEL-28 cells): 750 µM
- fold decrease in toxicity when compared to 4-HEB ([1]; from IC50 (48 h), SK-MEL-28): 10 fold

Compound: Cc1cccc(O)c1 [3-hydroxytoluene]
- IC50 [1, 21]: 2500 µM
- IC50 ([2]; Mus musculus, B16F0, 48 h): 2100 µM

Compound: Cc1ccccc1O [2-hydroxytoluene]
- IC50 [1, 21]: 3200 µM
- IC50 ([2]; Mus musculus, B16F0, 48 h): 3200 µM

Compound: COc1ccc(O)cc1 [4-hydroxyanisole]
- % GSH depletion Tyrosinase/O2 ([3]; measurement conducted at 30 min): 95±3 %
- liver toxicity in clinical trials [20]: serious liver toxicity
- cell toxicity when tyrosinase was silenced by shRNA plasmid ([15]; 4-HA 50 μM): significantly less cell toxicity
- IC50 [1, 21]: 50 µM
- IC50 ([2]; Mus musculus, B16F0, 48 h): 60 µM

Compound: CCOC(=O)c1ccccc1O [Ethyl 2-hydroxybenzoate, ethyl 2-hydroxybenzoate]
- % GSH depletion (2 h) Tyrosinase/O2 [3]: 22±2%
- IC50 [1, 21]: 2000 µM
- IC50 ([2]; Mus musculus, B16F0, 48 h): 2600 µM

Compound: CC(=O)c1cccc(O)c1 [3-hydroxyacetophenone]
- IC50 [1, 22]: 2000 µM
- IC50 ([2]; 48 h, MTT): 1400 µM

Compound: COc1ccccc1O [2-hydroxyanisole]
- % GSH depletion (2 h) Tyrosinase/O2 [3]: 25±2%
- IC50 [1, 21]: 2200 µM
- IC50 ([2]; Mus musculus, B16F0, 48 h): 51 µM

Compound: O=C(O)c1ccc(O)cc1 [4-hydroxybenzoic acid]
- % GSH depletion (2 h) Tyrosinase/O2 [3]: 30±5%
- IC50 [1, 21]: 11200 µM
- IC50 ([2]; Mus musculus, B16F0, 48 h): 4200 µM
